Measurements reported in ChEMBL document CHEMBL1201862, “PubChem BioAssay data set” (2004).
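Step 1: Grow cells in 96-well plates. Step 2: Expose to compound for 48 hours at 5 concentrations. Step 3: Interpolate endpoints linearly; if unreached, use highest concentration. Abbreviation: GI50, concentration required for 50% inhibition of growth.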 Calls of active or inactive are those of the source. No stated cut-off is given here; in the data, active = GI50 up to about 1.1 µM and inactive = higher.

What was measured:
Assay in all cases: NCI-60 cell line screen, 48 h
DLD-1 = system: DLD-1
DMS-114 = system: DMS-114
HOP-18 = system: HOP-18
LXFL 529 = system: LXFL 529
M19-MEL = system: M19-MEL
RXF 631 = system: RXF 631
SNB-78 = system: SNB-78
XF498 = system: XF498

SMILES	GI50 (DLD-1)	GI50 (DMS-114)	GI50 (HOP-18)	GI50 (LXFL 529)	GI50 (M19-MEL)	GI50 (RXF 631)	GI50 (SNB-78)	GI50 (XF498)
Oc1cc(-c2cccs2)nc2cc3c(cc12)OCO3	5.13 µM (inactive)	3.93 µM (inactive)	> 100 µM (inactive)	4.79 µM (inactive)	3.34 µM (inactive)	28.2 µM (inactive)	7.36 µM (inactive)	3.54 µM (inactive)
CCOCc1cc(=O)c2cc3c(cc2o1)OC(C)(C)CC3	> 100 µM (inactive)	62.7 µM (inactive)	> 100 µM (inactive)	92.7 µM (inactive)	> 100 µM (inactive)	> 100 µM (inactive)	> 100 µM (inactive)	> 100 µM (inactive)
COc1c(OC(C)=O)cc2c(OC(C)=O)c1CC(C)CC(OC)C(O)C(C)/C=C(\C)C(OC(N)=O)C(OC)/C=C\C=C(/C)C(=O)N2 (configuration not stated)	> 49.8 µM (inactive)	> 64.7 µM (inactive)	> 100 µM (inactive)	49 µM (inactive)	> 76.4 µM (inactive)	> 100 µM (inactive)	> 100 µM (inactive)	> 90.4 µM (inactive)
Cc1cc(N(CCC#N)CCC#N)ccc1/N=N/c1ccccc1[N+](=O)[O-]	> 100 µM (inactive)	> 100 µM (inactive)	> 100 µM (inactive)	> 100 µM (inactive)	> 100 µM (inactive)	> 100 µM (inactive)	> 100 µM (inactive)	26.8 µM (inactive)
CCOC(=O)C1C(=O)c2ccccc2CN1Cc1ccccc1 (configuration not stated)	> 100 µM (inactive)	> 100 µM (inactive)	> 100 µM (inactive)	> 100 µM (inactive)	> 100 µM (inactive)	> 100 µM (inactive)	> 100 µM (inactive)	> 100 µM (inactive)
CCCCCCCCSC(=O)NCCCC	35.8 µM (inactive)	–	94.6 µM (inactive)	37.8 µM (inactive)	42.1 µM (inactive)	39.4 µM (inactive)	–	21.4 µM (inactive)
NNC(=O)N/N=C1\CN(c2ccc(Cl)cc2Cl)C(=O)C(=O)C1c1nc2ccccc2o1 (configuration not stated)	> 100 µM (inactive)	> 100 µM (inactive)	–	> 100 µM (inactive)	> 100 µM (inactive)	> 100 µM (inactive)	39.1 µM (inactive)	> 100 µM (inactive)
CS(=O)(=O)OCCn1cnc2nc(NC(=O)c3ccccc3)[nH]c(=O)c21	> 100 µM (inactive)	> 100 µM (inactive)	> 100 µM (inactive)	> 100 µM (inactive)	> 100 µM (inactive)	> 100 µM (inactive)	> 100 µM (inactive)	–
COc1cc(C2=NN(C)C(c3ccc([N+](=O)[O-])o3)C2)cc(OC)c1OC (configuration not stated)	48.4 µM (inactive)	35.6 µM (inactive)	> 100 µM (inactive)	38.5 µM (inactive)	29.8 µM (inactive)	51.5 µM (inactive)	> 100 µM (inactive)	–
CC1=C(C(=O)Nc2ccc(C)cc2)C(c2cccc([N+](=O)[O-])c2)C(C(=O)Nc2ccc(C)cc2)=C(C)N1	31.6 µM (inactive)	22.5 µM (inactive)	14.1 µM (inactive)	27.7 µM (inactive)	20.8 µM (inactive)	17.2 µM (inactive)	27.4 µM (inactive)	17.8 µM (inactive)
CC(C)(C)c1nc2c(o1)/C(=N\c1ccccc1)c1ccccc1C2=O	4.14 µM (inactive)	–	9.53 µM (inactive)	5.48 µM (inactive)	0.718 µM (active)	22.5 µM (inactive)	4.27 µM (inactive)	3.68 µM (inactive)
